The compounds below were run against S. pneumoniae Topoisomerase IV ATPase (ParE) (Streptococcus pneumoniae serotype 4, UniProt Q59961) (assay: S. pneumoniae Topoisomerase IV ATPase inhibition). Settings: values marked * are an average of two or more data points.
Type: biochemical
Method in brief: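 S. pneumoniae ParE (1.25 nM) ATPase with 160 μM ATP and 5 μg/ml sheared DNA in pH 8.0 Tris, Mg2+, DTT, Brij-35; phosphate detected by malachite green/molybdate at 650 nm. Normalised to 2% DMSO (0%) and 20 μM EDTA (100%); IC50 from 10 concentrations.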

Sequence of S. pneumoniae Topoisomerase IV ATPase (ParE) (Q59961 whole entry): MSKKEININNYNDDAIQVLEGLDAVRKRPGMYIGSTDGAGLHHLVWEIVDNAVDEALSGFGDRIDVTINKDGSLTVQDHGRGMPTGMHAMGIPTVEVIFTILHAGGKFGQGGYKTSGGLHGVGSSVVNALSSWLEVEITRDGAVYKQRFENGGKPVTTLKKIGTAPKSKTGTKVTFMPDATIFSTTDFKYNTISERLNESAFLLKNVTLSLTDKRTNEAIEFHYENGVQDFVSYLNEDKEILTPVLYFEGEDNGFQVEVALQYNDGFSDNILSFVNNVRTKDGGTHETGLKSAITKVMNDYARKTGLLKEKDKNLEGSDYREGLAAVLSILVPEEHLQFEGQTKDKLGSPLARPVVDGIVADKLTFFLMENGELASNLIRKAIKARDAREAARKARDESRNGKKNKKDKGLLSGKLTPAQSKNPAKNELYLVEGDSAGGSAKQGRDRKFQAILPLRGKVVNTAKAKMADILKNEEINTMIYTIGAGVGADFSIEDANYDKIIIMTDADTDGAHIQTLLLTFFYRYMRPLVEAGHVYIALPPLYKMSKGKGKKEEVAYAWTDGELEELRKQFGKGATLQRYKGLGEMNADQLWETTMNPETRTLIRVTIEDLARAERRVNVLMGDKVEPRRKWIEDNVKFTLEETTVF

`O=C(O)[C@H]1C[C@H]1c1cccc(-c2cnc(Nc3ccc(F)c(Cl)c3)nc2-n2ccc(C(F)(F)F)n2)c1` [Example 576, (1S,2R)-2-(3-(2-(3-chloro-4-fluorophenvlamino)-4-(3-(trifluoromethyl)-1H-pyrazol-1-yl)pyrimidin-5-yl)phenyl)cyclopropanecarboxylic acid] was tested, and the “% Inh (13 μM) of S. pneumoniae Topoisomerase IV ATPase” value was 100%.

Same assay, conditions: values marked * are an average of two or more data points, read-out: % Inh (13 μM) of S. pneumoniae Topoisomerase IV ATPase

Point of comparison: `CCOC(=O)c1sc(-c2cnc(Nc3ccc(F)c(Cl)c3)nc2NCCCOC)nc1-c1ccccn1` [Example 507, ethyl 2-{2-[(3-chloro-4-fluorophenyl)amino]-4-[(3-methoxypropyl)amino]pyrimidin-5-yl}-4-(pyridin-2-yl)-1,3-thiazole-5-carboxylate], inhibition at 13 µM 74%. Against it:
- O=C(O)c1cncc(-c2cnc(Nc3ccc(F)c(Cl)c3)nc2N2CCCCCC2)c1 [Example 254, 5-[4-(azepan-1-yl)-2-[(3-chloro-4-fluorophenyl)amino]-pyrimidin-5-yl]pyridine-3-carboxylic acid] — lower, 16.8%
- CC(C)Nc1nc(Nc2ccc(F)c(Cl)c2)ncc1-c1cncc(C(=O)O)c1 [Example 243, 5-[2-[(3-chloro-4-fluorophenyl)amino]-4-(propan-2-ylamino)pyrimidin-5-yl]pyridine-3-carboxylic acid] — higher, 83.5%
- CN(C)CCCNc1nc(Nc2cc(Cl)cc(Cl)c2)ncc1-c1ccc(C(=O)O)s1 [Example 339, 5-(2-(3,5-dichloro-phenylamino)-4-(3-(dimethylamino)propylamino)pyrimidin-5-yl) thiophene-2-carboxylic acid] — higher, 84.3%
- O=C(O)/C=C/c1cccc(-c2cnc(Nc3ccc(F)c(Cl)c3)nc2-n2nccn2)c1 [Example 324, (2E)-3-(3-{2-[(3-chloro-4-fluorophenyl)amino]-4-(2H-1,2,3-triazol-2-yl)pyrimidin-5-yl}phenyl)prop-2-enoic acid] — higher, 76.9%
- COCCCNc1nc(Nc2ccc(F)c(Cl)c2)ncc1-c1ccc2sc(C(=O)O)cc2c1 [Example 307, 5-(2-(3-choloro-4-fluorophenylamino)-4-(3-methoxypropylamino)-pyrimidin-5-yl)benzo[b]thiophene-2-carboxylic acid] — higher, 80.6%
- O=C(O)c1cncc(-c2cnc(Nc3cc(F)cc(F)c3)nc2N2CCOCC2)c1 [Example 388, 5-[2-(3,5-Difluoro-phenylamino)-4-morpholin-4-yl-pyrimidin-5-yl]nicotinic acid] — lower, 72%
- O=C(O)c1cc(-c2cnc(Nc3ccc(F)c(Cl)c3)nc2-n2ccc(C(F)(F)F)n2)c[nH]c1=O [Example 1092, 5-(2-(3-Chloro-4-fluorophenylamino)-4-(3-(trifluoromethyl)-1H-pyrazol-1-yl)pyrimidin-5-yl)-2-oxo-1,2-dihydropyridine-3-carboxylic acid] — higher, 100%
- Cc1cc(F)cc(Nc2ncc(-c3cncc(C(=O)O)c3)c(-n3ccc(C(F)(F)F)n3)n2)c1 [Example 770, 5-{2-[(3-fluoro-5-methylphenyl)-amino]-4-[3-(trifluoromethyl)-1H-pyrazol-1-yl]pyrimidin-5-yl}pyridine-3-carboxylic acid] — higher, 100%
- O=C(O)Cn1nccc1-c1cnc(Nc2ccc(F)c(Cl)c2)nc1-n1ccc(C(F)(F)F)n1 [Example 1137, 2-(5-(2-(3-chloro-4-fluorophenylamino)-4-(3-(trifluoromethyl)-1H-pyrazol-1-yl)pyrimidin-5-yl)-1H-pyrazol-1-yl)acetic acid] — higher, 100%
- COc1cc(Nc2ncc(-c3cnc(OC)c(C(=O)NS(C)(=O)=O)c3)c(-n3nc(C(F)(F)F)nc3C)n2)cc(OC)c1 [Example 1153, 5-(2-(3,5-dimethoxyphenylamino)-4-(5-methyl-3-(trifluoromethyl)-1H-1,2,4-triazol-1-yl)pyrimidin-5-yl)-2-methoxy-N-(methylsulfonyl)nicotinamide] — higher, 100%
- Cc1cc(C(F)(F)F)nn1-c1nc(Nc2ccc(F)c(Cl)c2)ncc1-c1cc(C(=O)O)c(=O)n(CCS(C)(=O)=O)c1 [Example 1093, 5-(2-(3-Chloro-4-fluorophenylamino)-4-(5-methyl-3-(trifluoromethyl)-1H-pyrazol-1-yl)pyrimidin-5-yl)-1-(2-(methylsulfonyl)ethyl)-2-oxo-1,2-dihydropyridine-3-carboxylic acid] — higher, 100%
- COCCOc1cccc(Nc2ncc(-c3cccc(/C=C/C(=O)O)c3)c(N3CCOCC3)n2)c1 [Example 457] — lower, 28%
- O=C(O)/C=C/c1cccc(-c2cnc(Nc3ccc4c(c3)CCC4)nc2-n2ccc(C(F)(F)F)n2)c1 [Example 655, (2E)-3-(3-{2-(2,3-dihydro-1H-inden-5-ylamino)-4-[3-(trifluoromethyl)-1H-pyrazol-1-yl]pyrimidin-5-yl}phenyl)prop-2-enoic acid] — higher, 89%
- Fc1ccc(Nc2ncc(-c3cncnc3)c(NCc3cccnc3)n2)cc1Cl [Example 39, N^2-(3-chloro-4-fluorophenyl)-N^4-(pyridin-3-ylmethyl)-5-pyrimidin-5-ylpyrimidine-2,4-diamine] — lower, 63%
- O=C(O)/C=C/c1cccc(-c2cnc(Nc3ccc(F)c(Cl)c3)nc2N2CCCCC2)c1 [Example 297, (E)-3-(3-(2-(3-chloro-4-fluorophenylamino)-4-(piperidin-1-yl)pyrimidin-5-yl)phenyl)acrylic acid] — higher, 128%
- COc1cccc(Nc2ncc(-c3cncc(C(=O)O)c3)c(N3CCOCC3)n2)c1 [Example 439] — lower, 62%
- COc1cc(Nc2ncc(-c3cnc(-n4ccnc4)c(C(=O)O)c3)c(-n3ccc(C(F)(F)F)n3)n2)cc(OC)c1 [Example 590, 5-(2-(3,5-dimethoxyphenylamino)-4-(3-(trifluoromethyl)-1H-pyrazol-1-yl)pyrimidin-5-yl)-2-(1H-imidazol-1-yl)nicotinic acid] — higher, 100%
- COc1ncc(-c2cnc(Nc3ccc(F)c(Cl)c3)nc2-n2ccc(C(F)(F)F)n2)cc1/C=C/C(=O)O [Example 1030, (E)-3-(5-(2-(3-chloro-4-fluorophenylamino)-4-(3-(trifluoromethyl)-1H-pyrazol-1-yl)pyrimidin-5-yl)-2-methoxypyridin-3-yl)acrylic acid] — higher, 100%
- O=C1CCCN1CCCNc1nc(Nc2ccc(F)c(Cl)c2)ncc1-c1cncnc1 [Example 34, 1-[3-[[2-[(3-chloro-4-fluorophenyl)amino]-5-pyrimidin-5-ylpyrimidin-4-yl]amino]propyl] pyrrolidin-2-one] — higher, 84.3%
- O=C(O)c1cccc(-c2cnc(Nc3cc(F)cc(Cl)c3)nc2N2CCOCC2)n1 [Example 393, 6-[2-(3-Chloro-5-fluoro-phenylamino)-4-morpholin-4-yl-pyrimidin-5-yl]-pyridine-2-carboxylic acid] — higher, 82%
- CCOC(=O)/C=C/c1cccc(-c2cnc(Nc3ccc(F)c(Cl)c3)nc2N2CCN(C(=O)N(C)C)CC2)c1 [Example 164, (E)-ethyl 3-(3-(2-(3-chloro-4-fluorophenylamino)-4-(4-(dimethylcarbamoyl)piperazin-1-yl)pyrimidin-5-yl)phenyl)acrylate] — lower, 47%
- COc1cc(C#N)cc(Nc2ncc(-c3cnc(OC)c(C(=O)O)c3)c(-n3nc(C(F)(F)F)cc3C)n2)c1 [Example 737, 5-{2-[(3-cyano-5-methoxyphenyl)amino]-4-[5-methyl-3-(trifluoromethyl)-1H-pyrazol-1-yl]pyrimidin-5-yl}-2-methoxypyridine-3-carboxylic acid] — higher, 97%
- Cc1cc(C(F)(F)F)nn1-c1nc(Nc2ccc(F)c(Cl)c2)ncc1-c1ccc(C(=O)O)s1 [Example 1114, 5-[2-[(3-chloro-4-fluorophenyl)amino]-4-[5-methyl-3-(trifluoromethyl)pyrazol-1-yl]pyrimidin-5-yl]thiophene-2-carboxylic acid] — higher, 100%
- CCNC(=O)NS(=O)(=O)c1cccc(-c2cnc(Nc3ccc(F)c(Cl)c3)nc2-n2ccc(C(F)(F)F)n2)c1 [Example 998, 3-(2-(3-Chloro-4-fluorophenylamino)-4-(3-(trifluoromethyl)-1H-pyrazol-1-yl)pyrimidin-5-yl)-N-(ethylcarbamoyl)benzenesulfonamide] — higher, 100%
- CNC(=O)C1CCN(c2nc(Nc3ccc(F)c(Cl)c3)ncc2-c2cncc(C(=O)O)c2)CC1 [Example 247, 5-[2-[(3-chloro-4-fluoprophenyl)amino]-4-[4-(methylcarbamoyl)-piperidin-1-yl]pyrimidin-5-yl]pyridine-3-carboxylic acid] — lower, 42.2%
- COc1cc(Nc2ncc(-c3cnc(OC)c(-c4n[nH]c(=O)o4)c3)c(-n3nc(C(F)(F)F)cc3C)n2)cc(OC)c1 [Example 805, 5-(5-{2-[(3,5-dimethoxyphenyl)amino]-4-[5-methyl-3-(trifluoromethyl)-1H-pyrazol-1-yl]pyrimidin-5-yl}-2-methoxypyridin-3-yl)-1,3,4-oxadiazol-2(3H)-one] — higher, 100%
- Cc1cc(C(F)F)nn1-c1nc(Nc2ccc(F)c(Cl)c2)ncc1-c1cccc(/C=C/C(=O)O)c1 [Example 563, (2E)-3-(3-{2-[(3-chloro-4-fluorophenyl)amino]-4-[3-(difluoromethyl)-5-methyl-1H-pyrazol-1-yl]pyrimidin-5-yl}phenyl)prop-2-enoic acid] — higher, 100%
- Cc1cc(C(F)F)n(-c2nc(Nc3ccc(F)c(Cl)c3)ncc2-c2cncc(C(=O)O)c2)n1 [Example 531, 5-{2-[(3-chloro-4-fluorophenyl)amino]-4-[5-(difluoromethyl)-3-methyl-1H-pyrazol-1-yl]pyrimidin-5-yl}pyridine-3-carboxylic acid] — higher, 100%
- Cc1ncsc1CCNc1nc(Nc2ccc(F)c(Cl)c2)ncc1-c1cncc(C(=O)O)c1 [Example 262, 5-(2-[(3-chloro-4-fluorophenyl)amino]-4-{[2-(4-methyl-1,3-thiazol-5-yl)ethyl]amino}pyrimidin-5-yl)pyridine-3-carboxylic acid] — higher, 80.5%

Reference: patent US20100137313A1 (ASTRAZENECA AB, priority 2008, published 2010)
